From patent US10030059B2, “Modulators of gamma-C-cytokine activity” (Bioniz, LLC, priority 2015, dated 2018) come the findings set out here.

Peptide text beside a SMILES is read from it.

The series deals with T-cells in HAM/TSP patient PBMC. As to the kind of experiment: Ex vivo spontaneous T-cell proliferation assay using HAM/TSP peripheral blood. It is filed as cell-based, human. Conditions: HAM/TSP peripheral blood ex vivo culture. As for the experimental part: Proliferation assays were performed on HAM/TSP patient blood samples with and without the addition of BNZ-γ. These assays evaluated the ability of BNZ-γ to block the function of cytokines, such as IL-2 and IL-15, present in the ex vivo HAM/TSP patient blood culture and prevent spontaneous T-cell proliferation in these samples.
In an ex vivo spontaneous T-cell proliferation assay, PBMC from HAM/TSP patient was cultured at 1×10(6) cells per well of a 96 well plate in RPMI-10% FCS. Increasing concentrations of BNZ-γ peptide were added to each well. As a control, an irrelevant peptide was used in similar fashion. The cells were incubated in a 37° C. CO2 incubator for 3, 4, and 6 days. The amount of 1 μCi of ^3H-thymidine was added to the cells. After an additional 6 hour incubation, cells were harvested their proliferation rate was measured. As indicated in FIG. 4A-FIG. 4D, BNZ-γ peptide inhibits the spontaneous proliferation of T-cells in HAM/TSP culture at a concentration of about 1 μg/ml.
Other immunological markers were additionally measured in this assay. The percentage of the viral specific CD8 cells was measured during the ex vivo culture using viral protein tetramers. The population of CD4+CD25+ cells, a marker of T-cell activation, as well as Ki67 staining, a marker of T-cell proliferation, was monitored in a flow cytometry assay.

Regarding `CC[C@H](C)[C@H](N)C(=O)N[C@@H](CCCCN)C(=O)N[C@@H](CCC(=O)O)C(=O)N[C@@H](Cc1ccccc1)C(=O)N[C@@H](CC(C)C)C(=O)N[C@@H](CCC(N)=O)C(=O)N[C@@H](CCCNC(=N)N)C(=O)N[C@@H](Cc1ccccc1)C(=O)N[C@H](C(=O)N[C@@H](Cc1c[nH]cn1)C(=O)N[C@H](C(=O)N[C@H](C(=O)N[C@@H](CCC(N)=O)C(=O)N[C@@H](CO)C(=O)N[C@H](C(=O)N[C@H](C(=O)N[C@@H](CC(N)=O)C(=O)N[C@H](C(=O)N[C@@H](CO)C(=O)O)[C@@H](C)O)[C@@H](C)CC)[C@@H](C)CC)C(C)C)[C@@H](C)CC)[C@@H](C)CC` [BNZ-γ, I-K-E-F-L-Q-R-F-I-H-I-V-Q-S-I-I-N-T-S] (H-IKEFLQRFIHIVQSIINTS-OH), the “percent of live cells by Guava staining” value was “not impacted”.
